Patent US10150737B2, “Compounds for controlling arthropods” (priority 2013, dated 2018)
Where two headings read alike, the source gives them in different places.

Assays:
[1] = logP determination by HPLC on a reversed-phase column (C18); type: physicochemical; conditions: for log P: HPLC-MS; for logP^a): HPLC-MS method a)
Phaedon cochleariae = Phaedon cochleariae - spray test; type: in vivo; conditions: larvae on Chinese cabbage leaf discs, after 7 days
Protocol: Solvent: 78.0 parts by weight of acetone and 1.5 parts by weight of dimethylformamide
Emulsifier: alkylaryl polyglycol ether
To produce an appropriate active ingredient formulation, 1 part by weight of active ingredient is dissolved using the specified parts by weight of solvent and made up with water containing an emulsifier concentration of 1000 ppm until the desired concentration is attained. To produce further test concentrations, the preparation is diluted with emulsifier-containing water.
Discs of Chinese cabbage leaves (Brassica pekinensis) are sprayed with an active ingredient formulation of the desired concentration and, after drying, populated with larvae of the mustard beetle (Phaedon cochleariae).
After 7 days, efficacy in % is determined. 100% means that all the beetle larvae have been killed; 0% means that no beetle larvae have been killed.

Boophilus microplus = Boophilus microplus - injection test; type: in vivo; conditions: application rate 20 μg/animal, injection into engorged adult female ticks, after 7 days; for pest or weed control at 0.02 mg: Rhipicephalus microplus, 168 h, read-out: efficacy (laying of fertile eggs)
Protocol: Solvent: dimethyl sulphoxide
To produce an appropriate active ingredient formulation, 10 mg of active ingredient are mixed with 0.5 ml of solvent and the concentrate is diluted with solvent to the desired concentration.
1 μl of the active ingredient solution is injected into the abdomen of 5 engorged adult female cattle ticks (Boophilus microplus). The animals are transferred into dishes and kept in a climate-controlled room.
Efficacy is assessed after 7 days by laying of fertile eggs. Eggs which are not visibly fertile are stored in a climate-controlled cabinet until the larvae hatch after about 42 days. An efficacy of 100% means that none of the ticks has laid any fertile eggs; 0% means that all the eggs are fertile.

[2] = reversed-phase column (C18), Table I-T3
[3] = HPLC, C18 reversed phase, acetonitrile/water with formic acid, EEC Directive 79/831 Annex V.A8

Q: With O=C(NC1CC1)c1cc(-c2cnn(-c3c(Cl)cc(C(F)(C(F)(F)F)C(F)(F)F)cc3I)c2)ccc1Cl [I-T3-213] as the compound, how does the “log P” value [1, 2] read?
A: Its value is 4.4.

Q: Which “log P” value [1, 2] does the source give for CN(C(=O)c1cc(-c2cnn(-c3c(Cl)cc(C(F)(C(F)(F)F)C(F)(F)F)cc3OC(F)F)c2)cnc1Cl)C1CC1 [I-T3-217] here?
A: The value was 4.2.

Q: With CCSc1cc(C(F)(C(F)(F)F)C(F)(F)F)cc(C)c1-n1cc(-c2ccc(Cl)c(C(=O)NC3CC3)c2)cn1 [I-T3-203] as the compound, how does the “log P” value [1, 2] read?
A: The value was 4.6.

Q: Which results are given for CN(C(=O)c1cc(-c2cnn(-c3c(Cl)cc(C(O)(C(F)(F)F)C(F)(F)F)cc3Cl)c2)cnc1Cl)C1CC1 [I-T3-220]?
A: log P [1, 2]: 3.4; efficacy (Phaedon cochleariae; application rate 100 g/ha): 100%

Q: What does the source list for Cc1cc(C(F)(C(F)(F)F)C(F)(F)F)cc(C)c1-n1cc(-c2cnc(C3CC3)c(C(=O)N(C)C3CC3)c2)cn1 [I-T3-142]?
A: efficacy (laying of fertile eggs) (Boophilus microplus): 100%; logP^a) ([1]; reversed-phase column (C18)): 4.6; log P [1, 2]: 4.6

Q: For CCOc1cc(C(F)(C(F)(F)F)C(F)(F)F)cc(OCC)c1-n1cc(-c2cnc(Cl)c(C(=O)N(C)C3CC3)c2)cn1 [I-T3-211], which “log P” value [1, 2] is on record?
A: The value was 4.7.

Q: What does the source list for NC(=S)C1(NC(=O)c2cc(-c3cnn(-c4c(Cl)cc(C(F)(C(F)(F)F)C(F)(F)F)cc4C(F)(F)F)c3)cnc2Cl)CC1 [I-T3-159]?
A: logP^a) ([1]; reversed-phase column (C18)): 3.8; log P [1, 2]: 3.8

Q: For N#CC1(NC(=O)c2cc(-c3cnn(-c4c(I)cc(C(F)(C(F)(F)F)C(F)(F)F)cc4OC(F)(F)F)c3)ccc2Cl)CC1 [I-T3-226], which “log P” value [1, 2] is on record?
A: The value was 4.6.

Q: For CN(C(=O)c1cc(-c2cnn(-c3c(Cl)cc(C(F)(C(F)(F)F)C(F)(F)F)cc3C#N)c2)cnc1Cl)C1CC1 [I-T3-204], which “log P” value [1, 2] is on record?
A: The value was 3.9.

Q: Which “log P” value [1, 2] does the source give for CN(C(=O)c1cc(-c2cnn(-c3c(Cl)cc(C(F)(C(F)(F)F)C(F)(F)F)cc3OC(F)F)c2)ccc1Cl)C1CC1 [I-T3-216] here?
A: Its value is 4.7.

Q: With CCSc1cc(C(F)(C(F)(F)F)C(F)(F)F)cnc1-n1cc(-c2ccc(Cl)c(C(=O)NC3CC3)c2)cn1 [I-T3-156, 2-Chloro-N-cyclopropyl-5-{1-[3-(ethylsulphanyl)-5-(1,1,1,2,3,3,3-heptafluoropropan-2-yl)pyridin-2-yl]-1H-pyrazol-4-yl}benzamide] as the compound, how does the “logP^a)” value ([1]; reversed-phase column (C18)) read?
A: The value was 4.7.

Q: And the “log P” value [1, 2]?
A: The value was 4.7.

Q: For CN(C(=O)c1cc(-c2cnn(-c3c(Cl)cc(C(F)(C(F)(F)F)C(F)(F)F)cc3OC(F)(F)F)c2)cnc1Cl)C1CC1 [I-T3-208], which “log P” value [1, 2] is on record?
A: Its value is 4.6.

Q: For Cc1cc(C(F)(C(F)(F)F)C(F)(F)F)cc(C)c1-n1ccc(-c2ccc(Cl)c(C(=O)NC3(C#N)CC3)c2)c1 [I-T46-1], which logP [1, 3] is on record?
A: The logP was 4.90.

Q: For CN(C(=O)c1cc(-c2cnn(-c3c(I)cc(C(F)(C(F)(F)F)C(F)(F)F)cc3C(F)(F)F)c2)ccc1Cl)C1CC1 [I-T3-229], which “log P” value [1, 2] is on record?
A: Its value is 5.1.

Q: For CCSc1cc(C(F)(C(F)(F)F)C(F)(F)F)cc(C)c1-n1cc(-c2ccc(Cl)c(C(=O)NC3(C#N)CC3)c2)cn1 [I-T3-202], which “log P” value [1, 2] is on record?
A: Its value is 4.5.

Q: Which results are given for N#CC1(NC(=O)c2cc(-c3cnn(-c4ncc(C(F)(C(F)(F)F)C(F)(F)F)cc4SCC(F)(F)F)c3)ccc2Cl)CC1 [I-T3-171]?
A: log P [1, 2]: 4.5; efficacy (Phaedon cochleariae; application rate 100 g/ha): 100%

Q: For CC[S+]([O-])c1cc(C(F)(C(F)(F)F)C(F)(F)F)cc(C)c1-n1cc(-c2ccc(Cl)c(C(=O)NC3(C#N)CC3)c2)cn1 (stereo not shown) [I-T3-206], which “log P” value [1, 2] is on record?
A: The value was 3.6.

Q: With CC[S+]([O-])c1cc(C(F)(C(F)(F)F)C(F)(F)F)cnc1-n1cc(-c2ccc(Cl)c(C(=O)NC3(C#N)CC3)c2)cn1 (stereo not shown) [I-T3-153] as the compound, how does the “logP^a)” value ([1]; reversed-phase column (C18)) read?
A: Its value is 3.7.

Q: What about the “log P” value [1, 2] of the same compound?
A: The value was 3.7.

Q: What about the efficacy (Phaedon cochleariae; application rate 100 g/ha) of the same compound?
A: Its efficacy is 100%.

Q: With O=C(NC1CC1)c1cc(-c2cnn(-c3c(Cl)cc(C(F)(C(F)(F)F)C(F)(F)F)cc3C(F)F)c2)ccc1Cl [I-T3-193] as the compound, how does the “log P” value [1, 2] read?
A: The value was 4.4.

Q: With COc1cc(C(F)(F)F)cc(F)c1-n1cc(-c2ccc(Cl)c(C(=O)NC3CC3)c2)cn1 [I-T3-50, 2-chloro-N-cyclopropyl-5-[1-[2-fluoro-6-methoxy-4-(trifluoromethyl)phenyl]pyrazol-4-yl]benzamide] as the compound, how does the pest or weed control at 0.02 mg (Boophilus microplus) read?
A: The pest or weed control at 0.02 mg was 100%.

Q: For CN(C(=O)c1cc(-c2cnn(-c3c(Cl)cc(C(F)(C(F)(F)F)C(F)(F)F)cc3OC(F)(F)F)c2)ccc1Cl)C1CC1 [I-T3-219], which “log P” value [1, 2] is on record?
A: Its value is 5.1.

Q: Which “log P” value [1, 2] does the source give for CN(C(=O)c1cc(-c2cnn(-c3c(I)cc(C(F)(C(F)(F)F)C(F)(F)F)cc3OC(F)(F)F)c2)ccc1Cl)C1CC1 [I-T3-225] here?
A: The value was 5.2.

Q: For N#Cc1cc(C(F)(C(F)(F)F)C(F)(F)F)cc(Cl)c1-n1cc(-c2cnc(Cl)c(C(=O)NC3(C#N)CC3)c2)cn1 [I-T3-207], which “log P” value [1, 2] is on record?
A: The value was 3.5.

Q: Which “log P” value [1, 2] does the source give for N#CC1(NC(=O)c2cc(-c3cnn(-c4c(Cl)cc(C(F)(C(F)(F)F)C(F)(F)F)cc4OC(F)F)c3)cnc2Cl)CC1 [I-T3-218] here?
A: The value was 3.7.

Q: With N#CC1(NC(=O)c2cc(-c3cnn(-c4c(Cl)cc(C(F)(C(F)(F)F)C(F)(F)F)cc4OC(F)F)c3)ccc2Cl)CC1 [I-T3-215] as the compound, how does the “log P” value [1, 2] read?
A: Its value is 4.1.

Q: For CC[S+]([O-])c1cc(C(F)(C(F)(F)F)C(F)(F)F)cnc1-n1cc(-c2ccc(Cl)c(C(=O)NC3CC3)c2)cn1 (stereo not shown) [I-T3-157, 2-Chloro-N-cyclopropyl-5-{1-[3-(ethylsulphinyl)-5-(1,1,1,2,3,3,3-heptafluoropropan-2-yl)pyridin-2-yl]-1H-pyrazol-4-yl}benzamide], which “logP^a)” value ([1]; reversed-phase column (C18)) is on record?
A: Its value is 3.8.

Q: What about the “log P” value [1, 2] of the same compound?
A: The value was 3.8.

Q: With Cc1cc(C(F)(C(F)(F)F)C(F)(F)F)cc(C)c1-c1ccn(-c2ccc(Cl)c(C(=O)NC3CC3)c2)n1 [I-T2-1, 2-chloro-N-cyclopropyl-5-[3-[2,6-dimethyl-4-[1,2,2,2-tetrafluoro-1-(trifluoromethyl)ethyl]phenyl]pyrazol-1-yl]benzamide] as the compound, how does the pest or weed control at 0.02 mg (Boophilus microplus) read?
A: The pest or weed control at 0.02 mg was 100%.

Q: Which “log P” value [1, 2] does the source give for N#CC1(NC(=O)c2cc(-c3cnn(-c4c(Cl)cc(C(F)(C(F)(F)F)C(F)(F)F)cc4I)c3)ccc2Cl)CC1 [I-T3-212] here?
A: Its value is 4.3.

Q: Which “log P” value [1, 2] does the source give for O=C(NC1CC1)c1cc(-c2cnn(-c3c(I)cc(C(F)(C(F)(F)F)C(F)(F)F)cc3C(F)(F)F)c2)ccc1Cl [I-T3-227] here?
A: The value was 4.5.

Q: Which “log P” value [1, 2] does the source give for NC(=O)C1(NC(=O)c2cc(-c3cnn(-c4c(F)c(F)c(C(F)(F)F)c(F)c4F)c3)ccc2Cl)CC1 [I-T3-194] here?
A: The value was 2.8.

Q: For O=C(NC1CC1)c1cc(-c2cnn(-c3c(Cl)cc(C(F)(C(F)(F)F)C(F)(F)F)cc3OC(F)F)c2)ccc1Cl [I-T3-214], which “log P” value [1, 2] is on record?
A: Its value is 4.3.

Q: Which “log P” value [1, 2] does the source give for N#CC1(NC(=O)c2cc(-c3cnn(-c4c(I)cc(C(F)(C(F)(F)F)C(F)(F)F)cc4C(F)(F)F)c3)ccc2Cl)CC1 [I-T3-228] here?
A: Its value is 4.4.

Q: With Cc1cc(C(F)(C(F)(F)F)C(F)(F)F)cc(C)c1-n1cc(-c2cc(C(=O)NC3CC3)c(Cl)cc2F)cn1 [I-T3-14] as the compound, how does the “logP^a)” value [1] read?
A: Its value is 4.5.

Q: What about the “logP^a)” value [1, 2] of the same compound?
A: The value was 4.5.

Q: For CN(C(=O)c1cc(-c2cnn(-c3ccc(C(F)(C(F)(F)F)C(F)(F)F)cc3C(F)(F)F)c2)ccc1Cl)C1CC1 [I-T3-134], which logP [1, 3] is on record?
A: The logP was 4.88.

Q: And the “logP^a)” value ([1]; reversed-phase column (C18))?
A: The value was 4.9.

Q: What about the “log P” value [1, 2] of the same compound?
A: Its value is 4.9.

Q: Which “log P” value [1, 2] does the source give for CCS(=O)(=O)c1cc(C(F)(C(F)(F)F)C(F)(F)F)cc(C)c1-n1cc(-c2ccc(Cl)c(C(=O)NC3(C#N)CC3)c2)cn1 [I-T3-209] here?
A: The value was 3.8.

Q: Which “log P” value [1, 2] does the source give for CSc1cc(C(F)(C(F)(F)F)C(F)(F)F)cnc1-n1cc(-c2ccc(Cl)c(C(=O)NC3(C#N)CC3)c2)cn1 [I-T3-166] here?
A: Its value is 4.3.

Q: With O=C(NC1CC1)c1cc(-c2cnn(-c3c(I)cc(C(F)(C(F)(F)F)C(F)(F)F)cc3OC(F)(F)F)c2)ccc1Cl [I-T3-224] as the compound, how does the “log P” value [1, 2] read?
A: Its value is 4.7.

Q: Which “log P” value [1, 2] does the source give for CCS(=O)(=O)c1cc(C(F)(C(F)(F)F)C(F)(F)F)cc(C)c1-n1cc(-c2ccc(Cl)c(C(=O)NC3CC3)c2)cn1 [I-T3-210] here?
A: Its value is 3.9.

Q: What does the source list for N#CC1(NC(=O)c2cc(-c3cnn(-c4c(F)c(F)c(C(F)(F)F)c(F)c4F)c3)ccc2Cl)CC1 [I-T3-188]?
A: log P [1, 2]: 3.4; efficacy (Phaedon cochleariae; application rate 500 g/ha): 100%

Q: For Nc1c(Cl)cc(C(O)(C(F)(F)F)C(F)(F)F)cc1Cl [2-(4-amino-3,5-dichlorphenyl)-1,1,1,3,3,3-hexafluoropropan-2-ol], which logP [1] is on record?
A: Its logP is 3.04.

Q: For N#Cc1cc(C(F)(C(F)(F)F)C(F)(F)F)cc(Cl)c1-n1cc(-c2cnc(Cl)c(C(=O)NC3CC3)c2)cn1 [I-T3-205], which “log P” value [1, 2] is on record?
A: The value was 3.5.

Q: For CCS(=O)(=O)c1cc(C(F)(C(F)(F)F)C(F)(F)F)cc(Cl)c1-n1cc(-c2ccc(Cl)c(C(=O)NC3(C#N)CC3)c2)cn1 [I-T3-201], which “log P” value [1, 2] is on record?
A: The value was 4.0.
